According to patent US8535897B2, “Assays for non-apoptotic cell death and uses thereof” (The Trustees of Columbia University in the City of New York, priority 2006, dated 2013):

Legend:
Format in all cases: cell-based, human
[1] = tested on: BJ-TERT/LT/ST/RASV12 cells; assay: Nuclear morphology, fluorescence microscopy (Hoechst 33342)
Method: DNA was stained used Hoechst 33342.
To characterize the type of cell death induced by erastin, the effect of erastin was tested alongside camptothecin and staurosporine, which induce apoptotic cell death^39. Apoptosis is characterized by alterations in nuclear morphology, including pyknosis, karyorhexis and margination of chromatin^93. Nuclear morphology of camptothecin-treated and erastin-treated BJ-TERT/LT/ST/RAS^V12 cells was monitored using fluorescence microscopy. […] Apoptosis-inducing compounds (staurosporine and/or camptothecin) were tested alongside erastin in all of these assays to confirm the functionality of the assay. […] Therefore, in certain aspects the invention provides a genotype-selective anti-tumor agent which induces cell death via a non-apoptotic mechanism of oxidative cell death.

[2] = tested on: BJ-TERT/LT/ST/RASV12 cells; assay: Annexin V staining; settings: erastin 9 μM; camptothecin 1 μM
Method: The percentage of cells in the indicated M1 region were 6%, 6%, and 38% in untreated, erastin-treated (9 μM), and camptothecin-treated (1 μM), respectively.

PARP1 = PARP1 cleavage, western blot; settings: BJ-TERT/LT/ST/RAS^V12; staurosporine 1 μM 6 h, camptothecin 1 μM 18 h, erastin 20 μg/mL
Method: BJ-TERT/LT/ST/RAS^V12 tumor cells were seeded in six-well dishes, incubated overnight at 37° C. with 5% CO2 and were treated with nothing (NT), staurosporine (ST, 1 μM) for 6 h, camptothecin (C, 1 μM) for 18 h, or erastin (20 μg/mL) for the indicated time, lysed and analyzed by western blot with an anti-PARP1 antibody. A relatively high concentration of erastin was used to ensure loss of PARP cleavage was not due to a concentration-dependent effect.
For western blots, medium was aspirated, and each dish was washed twice with 10 mL of ice-cold PBS. Cells were lysed with 200 μL of buffer (50 mM HEPES, 40 mM NaCl, 2 mM EDTA, 0.5% Triton-X, 1.5 mM sodium orthovanadate, 50 mM NaF, 10 mM Na Pyrophosphate, 10 mM Na B-glycerophosphate and protease inhibitor tablet, pH 7.4). […]

cytochrome c = assay: Cytochrome c release from mitochondria; settings: BJ-TERT/LT/ST/RAS^V12; staurosporine 1 μM or erastin 20 μg/mL for 6 h
Method: BJ-TERT/LT/ST/RAS^V12 cells were seeded in polystyrene 100×20 mm dishes in 10 ml media. After overnight incubation at 37° C. with 5% CO2, the cells were treated with nothing (NT), staurosporine (ST, 1 μM) or erastin (20 μg/mL) for 6 h, washed with 10 mL ice-cold PBS and lysed by passage through a 25-gauge needle (five strokes). Cell lysates were centrifuged at 1850 rpm for 5 min at 4° C. to remove the nuclear fraction. Mitochondria were removed from the soluble cytosolic fraction by pelleting at 10,000 rpm. Supernatant and mitochondrial pellets were solubilized in SDS-PAGE loading buffer and analyzed by western blot using anti-cytochrome c and pan-VDAC antibodies and IR-dye-linked secondary antibodies. […] Fluorescence was detected on a LI-COR Odyssey infrared scanner.
(a) BJ-TERT/LT/ST/RAS^V12 cells were treated with 9 μM erastin A1 for the indicated length of time, and the number of viable cells determined. […] Red fluorescence resulting from reduction of alamar blue was detected on a Victor3 platereader. […] (e) The number of viable cells was quantified under each condition using a hemacytometer. […] BJ-TERT/LT/ST/RAS^V12 (shown in histogram plots, and in line graph as dark diamonds) or BJ-TERT cells (shown in line graph only, light circles) were treated with 4.6-μM erastin A1 and the level of intracellular oxidative species determined. […]

Structure (SMILES)	fragmented nuclei, of total nuclei ([1]; Hoechst 33342)	nuclear morphology ([1]; fluorescence microscopy)	percentage of cells in the M1 region (Annexin V staining) [2]	PARP1 cleavage (PARP1)	cytochrome c release from mitochondria (cytochrome c)
CC[C@@]1(O)C(=O)OCc2c1cc1n(c2=O)Cc2cc3ccccc3nc2-1 [camptothecin]	10%-20%	karyorhexis and margination of chromatin were visible	38%	degraded	
CN[C@@H]1C[C@H]2O[C@@](C)([C@@H]1OC)n1c3ccccc3c3c4c(c5c6ccccc6n2c5c31)C(=O)NC4 [staurosporine]					released from mitochondria
